Test results as given in ChEMBL document CHEMBL1157967, “Triterpenoid saponins from the fruits of Caryocar villosum” (J Nat Prod, 2006).
Calls of active or inactive are those of the source.

Assays:
Assay type in all cases: functional, organism-based
[1] = tested on: Pseudomonas aeruginosa; assay: Antibacterial activity against Pseudomonas aeruginosa at 50 ug by agar diffusion method
[2] = tested on: Escherichia coli; assay: Antibacterial activity against Escherichia coli at 50 ug by agar diffusion method
[3] = tested on: Mycolicibacterium smegmatis; assay: Antibacterial activity against Mycobacterium smegmatis at 50 ug by agar diffusion method
[4] = tested on: Staphylococcus aureus; assay: Antibacterial activity against Staphylococcus aureus at 50 ug by agar diffusion method
[5] = tested on: Enterococcus faecalis; assay: Antibacterial activity against Enterococcus faecalis at 50 ug by agar diffusion method

Measured: Activity

CC1(C)CC[C@]2(C(=O)O[C@@H]3O[C@H](CO)[C@@H](O)[C@H](O)[C@H]3O)CC[C@]3(C)C(=CC[C@@H]4[C@@]5(C)C[C@H](O)[C@H](O[C@@H]6O[C@H](C(=O)O)[C@@H](O)[C@H](O[C@@H]7O[C@H](CO)[C@H](O[C@@H]8O[C@H](CO)[C@H](O)[C@H](O[C@@H]9O[C@H](CO)[C@H](O)[C@H](O[C@@H]%10OC[C@@H](O)[C@H](O)[C@H]%10O)[C@H]9O)[C@H]8O)[C@H](O)[C@H]7O)[C@H]6O)C(C)(C)[C@@H]5CC[C@]43C)[C@@H]2C1
inactive: all assays above

CC1(C)CC[C@]2(C(=O)O)CC[C@]3(C)C(=CC[C@@H]4[C@@]5(C)CC[C@H](O[C@@H]6O[C@H](CO)[C@@H](O)[C@H](O[C@@H]7O[C@H](CO)[C@H](O)[C@H](O)[C@H]7O)[C@H]6O)[C@@](C)(CO)[C@@H]5CC[C@]43C)[C@@H]2C1
inactive: all assays above

CC1(C)CC[C@]2(C(=O)O)CC[C@]3(C)C(=CC[C@@H]4[C@@]5(C)C[C@H](O)[C@H](O[C@@H]6O[C@H](CO)[C@@H](O)[C@H](O[C@@H]7O[C@H](CO)[C@H](O)[C@H](O)[C@H]7O)[C@H]6O)[C@@](C)(CO)[C@@H]5CC[C@]43C)[C@@H]2C1
inactive: all assays above

CC1(C)CC[C@]2(C(=O)O[C@@H]3O[C@H](CO)[C@@H](O)[C@H](O)[C@H]3O)CC[C@]3(C)C(=CC[C@@H]4[C@@]5(C)C[C@H](O)[C@H](O[C@@H]6O[C@H](C(=O)O)[C@@H](O)[C@H](O[C@@H]7O[C@H](CO)[C@H](O)[C@H](O)[C@H]7O)[C@H]6O)C(C)(C)[C@@H]5CC[C@]43C)[C@@H]2C1
inactive: all assays above

CC1(C)CC[C@]2(C(=O)O[C@@H]3O[C@H](CO)[C@@H](O)[C@H](O)[C@H]3O)CC[C@]3(C)C(=CC[C@@H]4[C@@]5(C)CC[C@H](O[C@@H]6O[C@H](CO)[C@H](O)[C@H](O)[C@H]6O[C@@H]6O[C@H](CO)[C@@H](O)[C@H](O)[C@H]6O)[C@@](C)(CO)[C@@H]5CC[C@]43C)[C@@H]2C1
inactive: all assays above
